Tests used:
AaenPBP1 [1] = target: T1, AaenPBP1 (Agriphila aeneociliella, UniProt Z9SOT8HEE8); assay: fluorescence titration, Scatchard analysis; type: binding
T1 construct: mature protein without signal peptide (1-23 of 166 aa ORF); pET-15b with SUMO tag, His-tag Ni-NTA purification, E. coli BL21(DE3)
T1 sequence (Z9SOT8HEE8 24-166): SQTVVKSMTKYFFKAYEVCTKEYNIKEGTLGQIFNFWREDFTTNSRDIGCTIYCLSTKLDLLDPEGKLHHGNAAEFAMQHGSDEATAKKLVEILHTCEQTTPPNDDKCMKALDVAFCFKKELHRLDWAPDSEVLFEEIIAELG

AaenPBP1 [2] = target: T1, AaenPBP1; assay: competitive fluorescence binding (1-NPN displacement)

`c1ccc(Nc2cccc3ccccc23)cc1` [1-NPN] was tested, and the Kd (AaenPBP1 [1]) was 4.6 µM.

For `CCCCCCCCC=O` [1-Nonanal], the Ki (AaenPBP1 [2]) was 7.04 µM.

`CCCCCC/C=C\CCCCCCCCOC(C)=O` [(Z)-9-Hexadecenyl acetate] was tested, and the Ki (AaenPBP1 [2]) was 1.72 µM.

From article PMC11642448, “Pheromone-Binding Protein 1 Performs a Dual Function for Intra- and Intersexual Signaling in a Moth” (International Journal of Molecular Sciences, 2024)
